# Columns and labels:
# [1] = Cytotoxicity against human LOXIMVI cells assessed as growth inhibition after 48 hrs by SRB assay; assay type: functional; conditions: LOX IMVI
# [2] = Cytotoxicity against human HCT116 cells assessed as growth inhibition after 48 hrs by SRB assay; assay type: functional; conditions: HCT-116, 48 h
# SR = test: Cytotoxicity against human SR cells assessed as growth inhibition after 48 hrs by SRB assay; assay type: functional
# SK-MEL-2 = test: Cytotoxicity against human SK-MEL-2 cells assessed as growth inhibition after 48 hrs by SRB assay; assay type: functional; conditions: SK-MEL-2, 48 h
# EKVX = test: Cytotoxicity against human EKVX cells assessed as growth inhibition after 48 hrs by SRB assay; assay type: functional
# [3] = Cytotoxicity against human Hs 578T cells assessed as growth inhibition after 48 hrs by SRB assay; assay type: functional
# [4] = Cytotoxicity against human RXF393 cells assessed as growth inhibition after 48 hrs by SRB assay; assay type: functional; conditions: RXF 393, 48 h
# [5] = Cytotoxicity against human NCI-ADR-RES cells assessed as growth inhibition after 48 hrs by SRB assay; assay type: functional
# [6] = Cytotoxicity against human UACC257 cells assessed as growth inhibition after 48 hrs by SRB assay; assay type: functional; conditions: UACC-257, 48 h
# T47D = test: Cytotoxicity against human T47D cells assessed as growth inhibition after 48 hrs by SRB assay; assay type: functional
# K562 = test: Cytotoxicity against human K562 cells assessed as growth inhibition after 48 hrs by SRB assay; assay type: functional; conditions: K562, 48 h
# MCF7 [7] = test: Cytotoxicity against human MCF7 cells assessed as growth inhibition after 48 hrs by SRB assay; assay type: functional; conditions: MCF7, 48 h
# [8] = Cytotoxicity against human OVCAR4 cells assessed as growth inhibition after 48 hrs by SRB assay; assay type: functional; conditions: OVCAR-4, 48 h
# MCF7 [9] = test: Antiproliferative activity against human MCF7 cells after 72 hrs by MTT assay; conditions: mcf7
# [10] = Cytotoxicity against human SF295 cells assessed as growth inhibition after 48 hrs by SRB assay; assay type: functional; conditions: SF-295, 48 h
# [11] = Cytotoxicity against human UO31 cells assessed as growth inhibition after 48 hrs by SRB assay; assay type: functional; conditions: UO-31, 48 h
# [12] = Cytotoxicity against human OVCAR8 cells assessed as growth inhibition after 48 hrs by SRB assay; assay type: functional; conditions: OVCAR-8, 48 h
# SN12C = test: Cytotoxicity against human SN12C cells assessed as growth inhibition after 48 hrs by SRB assay; assay type: functional
# [13] = Cytotoxicity against human MOLT4 cells assessed as growth inhibition after 48 hrs by SRB assay; assay type: functional; conditions: MOLT-4, 48 h
# [14] = Cytotoxicity against human OVCAR5 cells assessed as growth inhibition after 48 hrs by SRB assay; assay type: functional; conditions: OVCAR-5, 48 h
# KM12 = test: Cytotoxicity against human KM12 cells assessed as growth inhibition after 48 hrs by SRB assay; assay type: functional; conditions: KM12, 48 h
# [15] = Cytotoxicity against human HOP92 cells assessed as growth inhibition after 48 hrs by SRB assay; assay type: functional; conditions: HOP-92, 48 h
# [16] = Cytotoxicity against human TK10 cells assessed as growth inhibition after 48 hrs by SRB assay; assay type: functional; conditions: TK-10, 48 h
# U-251 = test: Cytotoxicity against human U251 cells assessed as growth inhibition after 48 hrs by SRB assay; assay type: functional; conditions: U-251, 48 h
# [17] = Cytotoxicity against human HOP62 cells assessed as growth inhibition after 48 hrs by SRB assay; assay type: functional; conditions: HOP-62, 48 h
# SK-MEL-5 = test: Cytotoxicity against human SK-MEL-5 cells assessed as growth inhibition after 48 hrs by SRB assay; assay type: functional; conditions: SK-MEL-5, 48 h
# [18] = Cytotoxicity against human DU145 cells assessed as growth inhibition after 48 hrs by SRB assay; assay type: functional; conditions: DU-145, 48 h
# [19] = Cytotoxicity against human SNB75 cells assessed as growth inhibition after 48 hrs by SRB assay; assay type: functional; conditions: SNB-75, 48 h
# NCI-H23 = test: Cytotoxicity against human NCI-H23 cells assessed as growth inhibition after 48 hrs by SRB assay; assay type: functional; conditions: NCI-H23, 48 h
# MDA-MB-231 = test: Cytotoxicity against human MDA-MB-231 cells assessed as growth inhibition after 48 hrs by SRB assay; assay type: functional; conditions: MDA-MB-231, 48 h
# NCI-H322M = test: Cytotoxicity against human NCI-H322M cells assessed as growth inhibition after 48 hrs by SRB assay; assay type: functional
# [20] = Cytotoxicity against human HCC2998 cells assessed as growth inhibition after 48 hrs by SRB assay; assay type: functional; conditions: HCC 2998, 48 h
# Malme-3M = test: Cytotoxicity against human MALME-3M cells assessed as growth inhibition after 48 hrs by SRB assay; assay type: functional
# [21] = read-out: LC50 (the source's name)
smiles,measurement,setting,value
C/C(=C(/c1ccc(O)cc1)c1ccc(OCCN2CCCC2)cc1)c1ccccc1,GI50,[1],1.72 µM
same,LC50 (concentration killing 50% of cells),[1],6.29 µM
same,TGI,[1],3.29 µM
same,GI50,[2],2.92 µM
same,LC50,[2],32.6 µM
same,TGI,[2],10.1 µM
same,GI50,SR,1.93 µM
same,TGI,SR,5.75 µM
same,CC50,SR; [21],40.6 µM
same,GI50,SK-MEL-2,1.97 µM
same,TGI,SK-MEL-2,3.95 µM
same,CC50,SK-MEL-2; [21],7.94 µM
same,GI50,EKVX,2.46 µM
same,LC50,EKVX,33.9 µM
same,TGI,EKVX,11.5 µM
same,GI50,[3],2.96 µM
same,TGI,[3],9.9 µM
same,CC50,[3]; [21],> 100 µM
same,GI50,[4],2 µM
same,TGI,[4],5.05 µM
same,CC50,[4]; [21],19.8 µM
same,GI50,[5],4.17 µM
same,TGI,[5],18.3 µM
same,CC50,[5]; [21],61.5 µM
same,GI50,[6],2.03 µM
same,LC50,[6],7.61 µM
same,TGI,[6],3.93 µM
same,GI50,T47D,0.716 µM
same,LC50,T47D,53.7 µM
same,TGI,T47D,7.93 µM
same,GI50,K562,1.81 µM
same,LC50,K562,23.6 µM
same,TGI,K562,4.77 µM
same,GI50,MCF7 [7],< 0.01 µM
same,TGI,MCF7 [7],2.72 µM
same,CC50,MCF7 [7]; [21],14 µM
same,GI50,[8],4.7 µM
same,LC50,[8],43.3 µM
same,TGI,[8],17.5 µM
same,IC50,MCF7 [9],< 1 µM
same,GI50,[10],1.95 µM
same,LC50 (concentration killing 50% of cells),[10],8.99 µM
same,TGI,[10],4.19 µM
same,GI50,[11],1.87 µM
same,TGI,[11],5.72 µM
same,CC50,[11]; [21],23.7 µM
same,GI50,[12],5.73 µM
same,TGI,[12],23.1 µM
same,CC50,[12]; [21],77.2 µM
same,GI50,SN12C,9.17 µM
same,LC50 (concentration killing 50% of cells),SN12C,68.7 µM
same,TGI,SN12C,25.7 µM
same,GI50,[13],2.94 µM
same,LC50,[13],67.2 µM
same,TGI,[13],11 µM
same,GI50,[14],7.99 µM
same,LC50 (concentration killing 50% of cells),[14],54.2 µM
same,TGI,[14],22.5 µM
same,GI50,KM12,3.51 µM
same,LC50 (concentration giving 50% net cell kill),KM12,41.5 µM
same,TGI,KM12,13.2 µM
same,GI50,[15],2.24 µM
same,TGI,[15],7.34 µM
same,CC50,[15]; [21],31.2 µM
same,GI50,[16],4.61 µM
same,LC50,[16],40.7 µM
same,TGI,[16],16.4 µM
same,GI50,U-251,2.24 µM
same,LC50 (50% lethal concentration),U-251,18 µM
same,TGI,U-251,5.49 µM
same,GI50,[17],2.1 µM
same,LC50 (concentration giving 50% net cell kill),[17],9.84 µM
same,TGI,[17],4.54 µM
same,GI50,SK-MEL-5,1.72 µM
same,TGI,SK-MEL-5,3.1 µM
same,CC50,SK-MEL-5; [21],5.59 µM
same,GI50,[18],9.72 µM
same,LC50,[18],46.3 µM
same,TGI,[18],21.4 µM
same,GI50,[19],3.07 µM
same,LC50,[19],42.2 µM
same,TGI,[19],15.7 µM
same,GI50,NCI-H23,4.31 µM
same,TGI,NCI-H23,18.2 µM
same,CC50,NCI-H23; [21],50.8 µM
same,GI50,MDA-MB-231,3.51 µM
same,LC50,MDA-MB-231,45.7 µM
same,TGI,MDA-MB-231,8.4 µM
same,GI50,NCI-H322M,5.12 µM
same,TGI,NCI-H322M,18.6 µM
same,CC50,NCI-H322M; [21],47 µM
same,GI50,[20],2.34 µM
same,TGI,[20],6.18 µM
same,CC50,[20]; [21],28.5 µM
same,GI50,Malme-3M,1.7 µM
same,TGI,Malme-3M,3.41 µM
same,CC50,Malme-3M; [21],6.84 µM

# Reference: ChEMBL document CHEMBL3774317, “Design and synthesis of novel tamoxifen analogues that avoid CYP2D6 metabolism” (Eur J Med Chem, 2016)
